# Tested on: anaerobic microbial consortium or consortia indigenous to the coal
# Assay: Hydrogen gas accumulated in headspace of amended Dietz coal slurries
# Details: approximately 134 days of incubation
# Description: Core samples from the Tongue River area in the northwest portion of the Powder River Basin, Dietz coal seam, were utilized for these experiments. The core was collected in the field in a manner that prevented oxygen exposure by placing it into a steel canister that was purged with argon. Gas in the core used for the experiments described herein was extensively desorbed during long-term storage and previous use.
# Coal samples were passed through a small jaw crusher twice resulting in pulverized coal (to yield a particle size similar to that of granulated sugar) that was measured into serum bottles (5 g per bottle); manipulations were carried out in an anaerobic environment. […]
# Bromoethanesulfonic acid (BESA), a methanogen inhibitor, was added to selected incubations. […] Hydrogen production in the amended slurries relative to sterile coal slurries was measured to identify the degree of stimulation.
# After approximately 134 days of incubation, all of the coal slurries were sampled for the aqueous phase (0.5 of 10 ml) and for gas analysis including hydrogen, methane, carbon dioxide, radioactive methane, and radioactive carbon dioxide. Methane and carbon dioxide were determined using a Hewlett Packard 5890 gas chromatograph equipped with a thermal conductivity detector. Radiolabeled methane and carbon dioxide were determined using a gas proportional counter (Innus Systems, Tampa, Fla.). […]
substance,measurement,value
Bromoethanesulfonic acid [BESA],"hydrogen gas accumulation in the headspace, result in words",Hydrogen accumulated to the greatest extent
